Patent publication US20230312528A1, “2-OXO-IMIDAZOLIDINE-4-CARBOXAMIDES AS NAV1.8 INHIBITORS” (Merck Sharp & Dohme LLC, priority 2020, published 2023)

Target: human NaV1.8 (Homo sapiens (Human), UniProt Q9Y5Y9)
Test: Nav1.8 Qube automated patch-clamp assay
Type: cell-based
Conditions: human NaV1.8 stably expressed in HEK 293 cells; automated 384-well patch-clamp; resting or inactivated state not specified
Method in brief: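 IC50 values from Hill-equation fits of offline percent inhibition: the 1st pulse gave resting and the 10th pulse inactivated-state inhibition. Stimulus was a 10 s, 1 Hz train to 10 mV (holding −90 mV, −67 mV interpulse) applied at room temperature to HEK293 cells stably expressing human NaV1.8 (Qube).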

Sequence of human NaV1.8 (Q9Y5Y9 whole entry): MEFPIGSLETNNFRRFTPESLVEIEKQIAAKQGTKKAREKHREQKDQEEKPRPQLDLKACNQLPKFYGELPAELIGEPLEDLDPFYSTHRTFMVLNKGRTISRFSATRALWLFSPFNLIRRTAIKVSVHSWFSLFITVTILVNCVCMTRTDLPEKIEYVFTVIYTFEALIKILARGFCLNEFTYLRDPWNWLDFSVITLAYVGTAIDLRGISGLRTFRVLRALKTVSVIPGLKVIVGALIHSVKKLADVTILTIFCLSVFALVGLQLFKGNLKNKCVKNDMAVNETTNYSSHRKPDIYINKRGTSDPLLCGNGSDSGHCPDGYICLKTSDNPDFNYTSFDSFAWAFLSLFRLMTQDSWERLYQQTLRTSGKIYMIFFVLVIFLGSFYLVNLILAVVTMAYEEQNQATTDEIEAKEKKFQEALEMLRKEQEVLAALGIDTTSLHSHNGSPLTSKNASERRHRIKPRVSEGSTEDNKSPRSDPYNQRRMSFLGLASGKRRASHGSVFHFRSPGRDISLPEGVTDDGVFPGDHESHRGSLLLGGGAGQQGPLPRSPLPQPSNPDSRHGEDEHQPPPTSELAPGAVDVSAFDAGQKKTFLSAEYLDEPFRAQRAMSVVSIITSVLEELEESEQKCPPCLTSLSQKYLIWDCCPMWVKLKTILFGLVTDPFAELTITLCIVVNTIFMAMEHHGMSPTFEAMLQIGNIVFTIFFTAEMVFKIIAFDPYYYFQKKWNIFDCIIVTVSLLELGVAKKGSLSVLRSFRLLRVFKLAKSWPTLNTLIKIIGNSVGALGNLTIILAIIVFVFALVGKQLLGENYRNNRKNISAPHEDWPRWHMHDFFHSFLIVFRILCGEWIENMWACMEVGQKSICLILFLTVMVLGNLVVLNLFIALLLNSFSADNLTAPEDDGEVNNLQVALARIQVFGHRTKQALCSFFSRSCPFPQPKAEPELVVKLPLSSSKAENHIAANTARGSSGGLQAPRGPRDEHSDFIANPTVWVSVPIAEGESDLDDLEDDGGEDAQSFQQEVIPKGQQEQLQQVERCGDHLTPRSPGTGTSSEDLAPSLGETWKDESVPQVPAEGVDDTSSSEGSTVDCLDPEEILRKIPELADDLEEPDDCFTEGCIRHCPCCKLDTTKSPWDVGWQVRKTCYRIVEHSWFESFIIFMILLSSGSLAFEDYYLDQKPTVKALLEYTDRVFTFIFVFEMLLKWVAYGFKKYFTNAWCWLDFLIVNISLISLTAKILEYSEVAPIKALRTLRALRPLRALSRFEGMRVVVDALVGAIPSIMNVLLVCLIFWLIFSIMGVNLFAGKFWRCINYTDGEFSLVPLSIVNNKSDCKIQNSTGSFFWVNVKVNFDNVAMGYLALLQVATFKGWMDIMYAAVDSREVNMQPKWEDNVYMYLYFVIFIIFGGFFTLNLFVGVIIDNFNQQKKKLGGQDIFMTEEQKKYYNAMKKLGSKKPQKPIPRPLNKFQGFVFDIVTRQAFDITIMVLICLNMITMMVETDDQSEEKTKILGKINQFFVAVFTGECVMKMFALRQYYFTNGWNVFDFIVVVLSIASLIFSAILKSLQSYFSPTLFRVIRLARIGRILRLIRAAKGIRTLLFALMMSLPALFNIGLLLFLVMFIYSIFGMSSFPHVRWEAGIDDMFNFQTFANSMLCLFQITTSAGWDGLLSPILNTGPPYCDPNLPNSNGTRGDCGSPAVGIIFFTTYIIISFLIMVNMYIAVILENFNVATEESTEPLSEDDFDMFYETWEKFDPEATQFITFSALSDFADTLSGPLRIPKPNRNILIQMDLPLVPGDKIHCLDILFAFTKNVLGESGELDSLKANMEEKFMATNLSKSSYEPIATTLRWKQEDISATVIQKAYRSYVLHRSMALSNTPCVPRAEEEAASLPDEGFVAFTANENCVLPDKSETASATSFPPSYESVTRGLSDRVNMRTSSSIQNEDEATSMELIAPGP

| IC50 [nM] | SMILES |
| --- | --- |
| 2.4 | N#Cc1cc(C(NC(=O)[C@@H]2CNC(=O)N2)c2ccc(OC(F)(F)F)cc2)ccc1Cl (single isomer, unassigned) [Example 57B, (S)-N-((R or S)-(4-chloro-3-cyanophenyl)(4-(trifluoromethoxy)phenyl)methyl)-2-oxoimidazolidine-4-carboxamide] |
| 17 | N#Cc1ccc(C(NC(=O)[C@@H]2CNC(=O)N2)c2ccc(F)c(Cl)c2)cc1 (single isomer, unassigned) [Example 18B, (S)-N-((R or S)-(3-chloro-4-fluoro-phenyl)(4-cyano-phenyl)methyl)-2-oxoimidazolidine-4-carboxamide] |
| 8100 | CN1C(=O)NCC1C(=O)NC(c1ccc(Cl)cc1)c1ccc(Cl)cc1 (single isomer, unassigned) [Example 2B, (R or S)—N-(bis(4-chlorophenyl)methyl)-3-methyl-2-oxoimidazolidine-4-carboxamide] |
| 8.6 | O=C1NC[C@@H](C(=O)NC(c2ccc(F)c(Cl)c2)c2nc3ccccc3o2)N1 (single isomer, unassigned) [Example 88, (S)-N-((R or S)-benzo[d]oxazol-2-yl(3-chloro-4-fluoro-phenyl)methyl)-2-oxoimidazolidine-4-carboxamide] |
| 6410 | O=C1NC[C@@H](C(=O)NC(c2ccc(Cl)cc2)c2cnc(C(F)(F)F)[nH]2)N1 (single isomer, unassigned) [Example 22B, (S)—N—((R or S)-(4-chlorophenyl)(2-(trifluoromethyl)-1H-imidazol-4-yl)methyl)-2-oxoimidazolidine-4-carboxamide] |
| 7 | O=C1NC[C@@H](C(=O)NC(c2ccc(Cl)cc2)c2ccc(F)c(C(F)(F)F)c2)N1 (single isomer, unassigned) [Example 17B, (S)-N-((R or S)-(4-chloropehnyl)(4-fluoro-3-(trifluoro-methyl)phenyl)methyl)-2-oxoimidazolidine-4-carboxamide] |
| 7.6 | O=C1NC[C@@H](C(=O)NC(c2ccc(OC(F)(F)F)c(Cl)c2)c2ccnc(C(F)(F)F)n2)N1 (single isomer, unassigned) [Example 49A, (S)-N-((R or S)-3-chloro-4-(trifluoro-methoxy)phenyl)(2-(trifluoromethyl)pyrimidin-4-yl)methyl)-2-oxoimidazolidine-4-carboxamide] |
| 372 | CS(=O)(=O)c1ccc(C(NC(=O)[C@@H]2CNC(=O)N2)c2ccc(F)c(Cl)c2)cc1 (single isomer, unassigned) [Example 85A, (S)-N-((R or S)-(3-chloro-4-fluorophenyl)(4-(methylsulfonyl)phenyl)methyl)-2-oxoimidazolidine-4-carboxamide] |
| 74 | O=C1NC[C@@H](C(=O)NC(c2ccc(F)c(Cl)c2F)C2CCN(C3(C(F)(F)F)CC3)CC2)N1 (single isomer, unassigned) [Example 5B, (S)—N—((R or S)-(3-chloro-2,4-difluorophenyl)(1-(1-(trifluoromethyl)-cyclopropyl)piperidin-4-yl)methyl)-2-oxoimidazolidine-4-carboxamide] |
| 4.9 | O=C1NC[C@@H](C(=O)NC(CC2CCC(C(F)(F)F)CC2)c2ccc(F)c(Cl)c2F)N1 (single isomer, unassigned) [Example 23B, (S)—N—((R or S)-1-(3-chloro-2,4-difluorophenyl)-2-((cis or trans)-4-(trifluoro-methyl)cyclohexyl)ethyl)-2-oxoimidazolidine-4-carboxamide] |
| 189 | O=C1NC[C@@H](C(=O)NC(CC2CCC(F)(F)CC2)c2ccc(F)c(Cl)c2F)N1 (single isomer, unassigned) [Example 25B, (S)-N-((R or S)-1-(3-chloro-2,4-difluorophenyl)-2-(4,4-difluorocyclohexyl)ethyl)-2-oxoimidazolidine-4-carboxamide] |
| 9500 | CN1CCC(C(NC(=O)[C@@H]2CNC(=O)N2)c2ccc(F)c(Cl)c2F)CC1C(F)(F)F (single isomer, unassigned) [Example 78B, (S)-N-((R or S)-(3-chloro-2,4-difluoro-phenyl)((cis or trans)-1-methyl-2-(trifluoro-methyl)piperidin-4-yl)methyl)-2-oxoimidazolidine-4-carboxamide] |
| 255 | O=C1NC[C@@H](C(=O)NC(c2ccc(Cl)cc2)c2ccc3cn[nH]c3c2)N1 (single isomer, unassigned) [Example 82A, (S)-N-((R or S)-(4-chlorophenyl)(1H-indazol-6-yl)methyl)-2-oxoimidazolidine-4-carboxamide] |
| 1.1 | O=C1NC[C@@H](C(=O)NC(c2cnc(C(F)(F)F)c(Cl)c2)c2ccc(F)c(Cl)c2F)N1 (single isomer, unassigned) [Example 38, (S)-N-((R or S)-(3-chloro-2,4-difluorophenyl)(5-chloro-6-(trifluoromethyl)pyridin-3-yl)methyl)-2-oxoimidazolidine-4-carboxamide] |
